Source: patent US9815867B2, “Peptide for inhibiting vascular endothelial growth factor receptor” (The University of Tokyo, priority 2012, dated 2017)
Starred links: 1 amine or outer side, 2 acyl side, 3 side chain; linkers in the order of their positions; H or OH if unused. Positions of bridges follow the written chain, without caps; N, C: chain ends. Residues, ends and D or L forms follow the SMILES beside them. X1 = O=C(C[*:2])Nc1cccc(C(=O)[*:1])c1

Assays:
[1] = molecular target: T1, human VEGFR2 (Homo sapiens, UniProt P35968); experiment: Binding of cyclic peptide to human VEGFR2 by BLI method (ForteBio); conditions: VEGFR2-Fc fusion immobilized, 30° C., read-out: koff, dissociation rate constant for human VEGFR2
T1 construct: Fc (fusion partner)
Description: (§1) A dissociation constant of binding between the cyclic peptide L1 or BL1 thus synthesized and human VEGFR2 or mouse VEGFR2 was determined by BLI method (ForteBio). A fusion protein of VEGFR2 and Fc was immobilized onto Anti-human IgG Capture Biosensors and the cyclic peptide L1 or BL1 varied in concentration was analyzed. The temperature was set at 30° C.

[2] = system: HUVEC; assay type: cell-based, human; conditions: 24 h
Description: Next, growth inhibiting activity of L1 and BL1 against HUVEC was examined by BrdU method. HUVEC cells were treated for 30 minutes with a cyclic peptide L1 or BL1 varied in concentration and then, co-incubated with the cyclic peptide and 10 ng/mL of VEGF. Twenty four hours later, the cells were labeled with BrdU for 4 hours in the presence of the cyclic peptide and VEGF. Then, the resulting cells were fixed, stained with a peroxidase-conjugated anti-BrdU antibody, and peroxidase activity was detected using a tetramethylbenzidine color colorimetric substrate. The cells without peptide and VEGF treatments and the cells without only peptide treatment were used as a control.

[3] = system: HUVEC and human skin-derived fibroblasts; experiment: VEGF-dependent angiogenesis, Kurabo angiogenesis kit (HUVEC and human skin-derived fibroblast co-culture); assay type: cell-based; conditions: 10 μm-L1 administered group; 10 ng/mL VEGF, 11 days, anti-CD31 staining; compared with 50 μM Suramin
Description: Next, angiogenesis kit of Kurabo was used to study the influence of L1 or BL1 on VEGF-dependent angiogenesis. HUVEC and human skin-derived fibroblasts were co-cultured in the presence of 10 ng/mL of VEGF and L1 or BL1 varied in concentration. After culturing at 37° C., supplementation with VEGF and peptide having the same concentration three days, six days, and eight days later, and fixation of the HUVEC cells 11 days later, the resulting cells were stained with an anti-CD31 antibody to visualize them and analyzed by making use of an image analysis service included in the kit. As a control, 50 μM of an angiogenesis inhibitor Suramin was added instead of the peptide.

[4] = molecular target: T2, mouse VEGFR2 (Mus musculus, UniProt P35918); experiment: Binding of cyclic peptide to mouse VEGFR2 by BLI method (ForteBio); conditions: VEGFR2-Fc fusion immobilized, 30° C., read-out: koff, dissociation rate constant for mouse VEGFR2
T2 construct: Fc (fusion partner)
Description: as §1

T1 sequence (P35968 20-764 limits assumed): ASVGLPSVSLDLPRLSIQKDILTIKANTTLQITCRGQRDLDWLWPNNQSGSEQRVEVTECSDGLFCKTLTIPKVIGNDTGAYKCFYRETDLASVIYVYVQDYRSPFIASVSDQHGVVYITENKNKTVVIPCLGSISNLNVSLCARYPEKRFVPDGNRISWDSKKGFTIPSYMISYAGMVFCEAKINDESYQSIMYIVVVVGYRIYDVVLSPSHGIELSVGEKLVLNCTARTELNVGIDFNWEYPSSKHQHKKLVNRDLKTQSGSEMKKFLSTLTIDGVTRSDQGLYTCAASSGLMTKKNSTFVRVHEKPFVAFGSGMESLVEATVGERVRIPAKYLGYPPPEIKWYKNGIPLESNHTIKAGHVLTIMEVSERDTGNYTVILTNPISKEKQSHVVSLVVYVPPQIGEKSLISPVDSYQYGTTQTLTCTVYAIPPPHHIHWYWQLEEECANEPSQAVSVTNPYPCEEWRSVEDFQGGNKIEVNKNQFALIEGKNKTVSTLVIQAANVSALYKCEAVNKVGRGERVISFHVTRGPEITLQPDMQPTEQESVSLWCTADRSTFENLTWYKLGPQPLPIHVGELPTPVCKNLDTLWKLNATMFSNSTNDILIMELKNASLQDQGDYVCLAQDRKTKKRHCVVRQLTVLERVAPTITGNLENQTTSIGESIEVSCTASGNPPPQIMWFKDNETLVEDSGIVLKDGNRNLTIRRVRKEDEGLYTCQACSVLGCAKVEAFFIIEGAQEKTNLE
T2 sequence (P35918 20-762 limits assumed): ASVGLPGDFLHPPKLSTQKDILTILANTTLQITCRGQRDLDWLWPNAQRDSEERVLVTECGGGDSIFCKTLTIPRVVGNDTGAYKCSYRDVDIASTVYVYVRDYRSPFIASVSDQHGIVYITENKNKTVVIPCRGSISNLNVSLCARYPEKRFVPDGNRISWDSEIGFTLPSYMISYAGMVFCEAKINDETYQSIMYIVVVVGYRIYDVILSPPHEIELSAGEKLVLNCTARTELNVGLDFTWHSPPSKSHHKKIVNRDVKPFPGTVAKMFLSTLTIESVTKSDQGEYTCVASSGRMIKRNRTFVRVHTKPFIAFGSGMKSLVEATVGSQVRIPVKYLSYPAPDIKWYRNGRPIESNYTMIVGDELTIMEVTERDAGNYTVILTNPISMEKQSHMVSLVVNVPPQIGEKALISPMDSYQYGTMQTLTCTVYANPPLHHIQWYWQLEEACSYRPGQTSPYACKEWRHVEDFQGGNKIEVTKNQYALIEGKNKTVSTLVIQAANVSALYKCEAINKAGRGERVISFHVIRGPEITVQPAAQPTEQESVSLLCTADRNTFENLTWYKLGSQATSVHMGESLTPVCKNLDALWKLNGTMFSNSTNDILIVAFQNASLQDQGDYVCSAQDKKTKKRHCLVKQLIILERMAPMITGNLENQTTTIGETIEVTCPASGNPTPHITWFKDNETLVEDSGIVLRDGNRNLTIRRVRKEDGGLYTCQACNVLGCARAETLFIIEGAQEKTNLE

koff [1] [s⁻¹] | koff [4] [s⁻¹] | SMILES | IC50 [2] [nM] | angiogenesis inhibiting effect [3]
0.002 |  | CC[C@H](C)[C@@H]1NC(=O)[C@H](Cc2ccc(O)cc2)NC(=O)[C@H](CC(C)C)NC(=O)CNC(=O)[C@H](CC(N)=O)NC(=O)[C@H](C(C)C)NC(=O)[C@H](Cc2c[nH]c3ccccc23)NC(=O)[C@@H]2CCCN2C(=O)[C@H](CC(=O)O)NC(=O)[C@H]([C@@H](C)O)NC(=O)[C@H](CO)NC(=O)[C@H](C(C)C)NC(=O)[C@H](C(C)C)NC(=O)[C@H](C(C)C)NC(=O)[C@H](Cc2ccccc2)NC(=O)CSC[C@@H](C(=O)NCC(N)=O)NC(=O)[C@H](CC(=O)O)NC1=O [L1, ClAc-L-Phe-Val-Val-Val-Ser-Thr-Asp-Pro-Trp-Val-Asn-Gly-Leu-Tyr-Ile-Asp-Cys] | 60 | angiogenesis inhibiting effect stronger than that of Suramin
0.0009 | 0.0008 | CC[C@H](C)[C@@H]1NC(=O)[C@H](Cc2ccccc2)NC(=O)c2cccc(c2)NC(=O)CSC[C@@H](C(=O)NCC(N)=O)NC(=O)[C@H](CCCNC(=N)N)NC(=O)[C@H](CCC(=O)O)NC(=O)[C@H](CC(C)C)NC(=O)[C@H](CO)NC(=O)[C@H]([C@@H](C)CC)NC(=O)[C@@H]2CCCN2C(=O)[C@H](Cc2c[nH]cn2)NC(=O)[C@H](C(C)C)NC(=O)[C@H](CCCCN)NC(=O)[C@H](C(C)C)NC(=O)[C@H](CCCNC(=N)N)NC(=O)[C@H](Cc2ccc(O)cc2)NC(=O)[C@H](Cc2c[nH]cn2)NC(=O)CNC1=O [BL1, MCAB-L-Phe-Ile-Gly-His-Tyr-Arg-Val-Lys-Val-His-Pro-Ile-Ser-Leu-Glu-Arg-Cys] (FIGHYRVKVHPISLERCG-NH2; linker N-17 via X1) | 60 | 
